Where two headings read alike, the source gives them in different places.
Tested on: PTDH ortholog from Nostoc sp. 7120
Assay: initial rate of NADH formation at […] nm, Michaelis-Menten fit
Assay type: biochemical, Nostoc sp. PCC 7120
Conditions: read-out: Nostoc sp. 7120, 100 mM MOPS pH 7.25, 30 °C

Compound	Km (co-substrate phosphite) [µM]	Km (co-substrate NAD+) [µM]
NC(=O)c1ccc[n+]([C@@H]2O[C@H](COP(=O)(O)OP(=O)(O)OC[C@H]3O[C@@H](n4cnc5c(N)ncnc54)[C@H](O)[C@@H]3O)[C@@H](O)[C@H]2O)c1 [NAD^+]	10.3	
O=[PH](O)O [phosphite]		20.2
